The results in this text go back to patent publication US20130005721A1, “INDOLIZINE INHIBITORS OF 5-LIPOXYGENASE” (PANMIRA PHARMACEUTICALS, LLC, priority 2009, published 2013).

The subject of one test is human leukocytes (LTB4 production, calcium ionophore stimulated). The experiment in a line: Human Leukocyte LTB4 Inhibition Assay. The format is cell-based. The note with it: LTB4 by ELISA, read-out: LTB4 HLA IC50. Here is the method:
Human Leukocyte LTB4 Inhibition Assay
A non-limiting example of a human leukocyte inhibition assay is as follows; Blood was drawn from consenting human volunteers into heparanized tubes and 3% dextran 0.9% saline ⅓ rd volume added. After sedimentation of red blood cells a hypotonic lysis of remaining red blood cells was performed and leukocytes sedimented at 1200 rpm. The pellet was resuspended at 1.25×10^5 cells/ml and aliquoted into wells containing 1 μL 100% DMSO (vehicle) or 2.5 μL drug in 100% DMSO. Samples were incubated for 5 minutes at 37° C. and 2 μL calcium ionophore […] (from a 50 mM DMSO stock diluted just prior to the assay in Hanks balanced salt solution (Invitrogen)) to 1.25 mM) was added, solutions mixed and incubated for 30 minutes at 37° C. Samples were centrifuged at 1,200 rpm (−200×g) for 10 minutes at 4° C., plasma removed and a 1:4 dilution assayed for LTB4 concentration using ELISA (Assay Designs). Drug concentrations to achieve 50% inhibition (IC50's) of vehicle LTB4 were determined by nonlinear regression (Graphpad Prism) of % inhibition versus log drug concentration.
For orientation: ELISA stands for enzyme-linked immunosorbent assay.
Take `CCC(O)(c1cn(Cc2ccn3c(-c4ccc(F)cc4)c(C#N)cc3c2)nn1)C(F)(F)F` (centres unmarked) [Compound 1-22, 3-(4-Fluoro-phenyl)-7-[4-(1-hydroxy-1-trifluoromethyl-propyl)-[1,2,3]triazol-1-ylmethyl]-indolizine-2-carbonitrile]: the half-maximal inhibitory concentration (IC50) (as a rule, the concentration that inhibits the measured activity by half) is less than 300 nM.

In the case of `CCC(O)(c1cn(Cc2ccn3c(-c4ccc(F)cc4)c(C(N)=O)cc3c2)nn1)C(F)(F)F` (single isomer, unassigned) [Compound 1-10, 3-(4-Fluoro-phenyl)-7-[4-(1-hydroxy-1-trifluoromethyl-propyl)-[1,2,3]triazol-1-ylmethyl]-indolizine-2-carboxylic acid amide], the IC50 is less than 300 nM.

Still in this test, the particulars now being: Leukocyte, LTB4 by ELISA, read-out: LTB4 HLA IC50.
For the compound `CCC(O)(c1cn(Cc2ccn3c(-c4ccc(F)cc4)c(CNCCC(=O)O)cc3c2)nn1)C(F)(F)F` (centres unmarked) [Compound 1-40, 3-({3-(4-Fluoro-phenyl)-7-[4-(1-hydroxy-1-trifluoromethyl-propyl)-[1,2,3]triazol-1-ylmethyl]-indolizin-2-ylmethyl}-amino)-propionic acid], the IC50 is greater than 1000 nM.

Take `CCC(O)(c1cn(Cc2ccn3c(C(C)=O)c(C(N)=O)cc3c2)nn1)C(F)(F)F` (centres unmarked) [Compound 1-67, 3-Acetyl-7-[4-(1-hydroxy-1-trifluoromethyl-propyl)-[1,2,3]triazol-1-ylmethyl]-indolizine-2-carboxylic acid amide]: the concentration for half-maximal inhibition (IC50) was greater than 1000 nM. On to `CCC(OC(=O)c1ccc([N+](=O)[O-])cc1)(c1cn(Cc2ccn3c(-c4ccc(C)nc4)c(C(N)=O)cc3c2)nn1)C(F)(F)F` (single isomer, unassigned) [Compound 1-75, 4-Nitro-benzoic acid 1-{1-[2-carbamoyl-3-(6-methyl-pyridin-3-yl)-indolizin-7-ylmethyl]-1H-[1,2,3]triazol-4-yl}-1-trifluoromethyl-propyl ester], for which the IC50 was greater than 1000 nM. The same measure, in the same setting: to `CCC(O)(c1nnc(NCc2ccn3c(-c4ccc(F)cc4)c(C#N)c(Br)c3c2)o1)C(F)(F)F` (centres unmarked) [Compound 1-18, 1-Bromo-3-(4-fluoro-phenyl)-7-{[5-(1-hydroxy-1-trifluoromethyl-propyl)-[1,3,4]oxadiazol-2-ylamino]-methyl}-indolizine-2-carbonitrile] belongs less than 300 nM; to `CCOC(=O)c1cc2cc(Cn3cc(C(CC)(OC(=O)c4ccc([N+](=O)[O-])cc4)C(F)(F)F)nn3)ccn2c1` (single isomer, unassigned) [Compound 1-86, 7-{4-[1-(4-Nitro-benzoyloxy)-1-trifluoromethyl-propyl]-[1,2,3]triazol-1-ylmethyl}-indolizine-2-carboxylic acid ethyl ester], less than 300 nM. On the same count and under the same terms, to `CCC(O)(c1cn(Cc2ccn3c(-c4ccc(F)cc4)c(C=O)cc3c2)nn1)C(F)(F)F` (centres unmarked) [Compound 1-33, 3-(4-Fluoro-phenyl)-7-[4-(1-hydroxy-1-trifluoromethyl-propyl)-[1,2,3]triazol-1-ylmethyl]-indolizine-2-carbaldehyde] belongs less than 300 nM.

Regarding `CCOC(=O)c1cc2cc(Cn3cc(C(O)(CC)C(F)(F)F)nn3)ccn2c1-c1cccc(F)c1` (centres unmarked) [Compound 1-46, 3-(3-Fluoro-phenyl)-7-[4-(1-hydroxy-1-trifluoromethyl-propyl)-[1,2,3]triazol-1-ylmethyl]-indolizine-2-carboxylic acid ethyl ester], the IC50 is less than 300 nM. On the same count and under the same terms, the same measure for `CCOC(=O)c1cc2cc(CNc3nnc(C(O)(CC)C(F)(F)F)o3)ccn2c1-c1ccc(F)cc1` (centres unmarked) [Compound 1-11, 3-(4-Fluoro-phenyl)-7-{[5-(1-hydroxy-1-trifluoromethyl-propyl)-[1,3,4]oxadiazol-2-ylamino]-methyl}-indolizine-2-carboxylic acid ethyl ester]: less than 300 nM; for `CCC(O)(c1nnc(NCc2ccn3c(-c4ccc(F)cc4)c(C(N)=O)c(Br)c3c2)o1)C(F)(F)F` (centres unmarked) [Compound 1-17, 1-Bromo-3-(4-fluoro-phenyl)-7-{[5-(1-hydroxy-1-trifluoromethyl-propyl)-[1,3,4]oxadiazol-2-ylamino]-methyl}-indolizine-2-carboxylic acid amide]: less than 300 nM; for `CCC(O)(c1cn(Cc2ccn3c(-c4ccc(F)cc4)c(/C=C/C(=O)OC)cc3c2)nn1)C(F)(F)F` (centres unmarked) [Compound 1-39, (E)-3-{3-(4-Fluoro-phenyl)-7-[4-(1-hydroxy-1-trifluoromethyl-propyl)-[1,2,3]triazol-1-ylmethyl]-indolizin-2-yl}-acrylic acid methyl ester]: less than 300 nM.

On to `CCC(O)(c1cn(Cc2ccn3c(-c4ccc(F)cc4)c(C(=O)O)cc3c2)nn1)C(F)(F)F` (centres unmarked) [Compound 1-5, 3-(4-Fluoro-phenyl)-7-[4-(1-hydroxy-1-trifluoromethyl-propyl)-[1,2,3]triazol-1-ylmethyl]-indolizine-2-carboxylic acid], for which the IC50 lay in the range of 300 to 1000 nM. Consider `CCC(OC(=O)c1ccc([N+](=O)[O-])cc1)(c1cn(Cc2ccn3c(-c4ccc(OC)nc4)c(C(N)=O)cc3c2)nn1)C(F)(F)F` (single isomer, unassigned) [Compound 1-83, 4-Nitro-benzoic acid 1-{1-[2-carbamoyl-3-(6-methoxy-pyridin-3-yl)-indolizin-7-ylmethyl]-1H-[1,2,3]triazol-4-yl}-1-trifluoromethyl-propyl ester], for which the IC50 fell in the range of 300 to 1000 nM.

In the case of `CCC(O)(c1cn(Cc2ccn3c(-c4ccc(F)cc4)c(CNCCC#N)cc3c2)nn1)C(F)(F)F` (centres unmarked) [Compound 1-42, 3-({3-(4-Fluoro-phenyl)-7-[4-(1-hydroxy-1-trifluoromethyl-propyl)-[1,2,3]triazol-1-ylmethyl]-indolizin-2-ylmethyl}-amino)-propionitrile], the IC50 was less than 300 nM. Still for that read-out and setting: the same measure for `CCC(O)(c1cn(Cc2ccn3c(-c4cccc(S(C)(=O)=O)c4)c(C#N)cc3c2)nn1)C(F)(F)F` (centres unmarked) [Compound 1-49, 7-[4-(1-Hydroxy-1-trifluoromethyl-propyl)-[1,2,3]triazol-1-ylmethyl]-3-(3-methanesulfonyl-phenyl)-indolizine-2-carbonitrile]: 300 to 1000 nM; for `CCC(O)(c1nnc(NCc2ccn3c(-c4ccc(F)cc4)c(C(N)=O)cc3c2)o1)C(F)(F)F` (centres unmarked) [Compound 1-19, 3-(4-Fluoro-phenyl)-7-{[5-(1-hydroxy-1-trifluoromethyl-propyl)-[1,3,4]oxadiazol-2-ylamino]-methyl}-indolizine-2-carboxylic acid amide]: less than 300 nM.

For the compound `CCC(O)(c1cn(Cc2ccn3c(Cl)c(C(N)=O)cc3c2)nn1)C(F)(F)F` (single isomer, unassigned) [Compound 1-89, 3-Chloro-7-[4-(1-hydroxy-1-trifluoromethyl-propyl)-[1,2,3]triazol-1-ylmethyl]-indolizine-2-carboxylic acid amide], the IC50 was greater than 1000 nM.

In the case of `CCC(O)(c1cn(Cc2ccn3c(-c4ccc(=O)n(C)c4)c(C#N)cc3c2)nn1)C(F)(F)F` (centres unmarked) [Compound 1-70, 7-[4-(1-Hydroxy-1-trifluoromethyl-propyl)-[1,2,3]triazol-1-ylmethyl]-3-(1-methyl-6-oxo-1,6-dihydro-pyridin-3-yl)-indolizine-2-carbonitrile], the IC50 is greater than 1000 nM. The same measure, in the same setting: the same measure for `CCOc1ccc(-c2c(C#N)cc3cc(Cn4cc(C(O)(CC)C(F)(F)F)nn4)ccn23)cn1` (centres unmarked) [Compound 1-59, 3-(6-Ethoxy-pyridin-3-yl)-7-[4-(1-hydroxy-1-trifluoromethyl-propyl)-[1,2,3]triazol-1-ylmethyl]-indolizine-2-carbonitrile]: less than 300 nM; for `CCOC(=O)c1cc2cc(Cn3cc(C(O)(CC)C(F)(F)F)nn3)ccn2c1-c1ccc(F)cc1` (centres unmarked) [Compound 1-4, 3-(4-Fluoro-phenyl)-7-[4-(1-hydroxy-1-trifluoromethyl-propyl)-[1,2,3]triazol-1-ylmethyl]-indolizine-2-carboxylic acid ethyl ester]: less than 300 nM. Turning to `CCOC(=O)c1cc2cc(Cn3cc(C(O)(CC)C(F)(F)F)nn3)ccn2c1-c1cccnc1` (centres unmarked) [Compound 1-24, 7-[4-(1-Hydroxy-1-trifluoromethyl-propyl)-[1,2,3]triazol-1-ylmethyl]-3-pyridin-3-yl-indolizine-2-carboxylic acid ethyl ester], the IC50 is less than 300 nM. Same read-out and setting: the same measure for `CCC(O)(c1cn(Cc2ccn3c(-c4ccc(OC)nc4)c(C(N)=O)c(C(=O)C(F)(F)F)c3c2)nn1)C(F)(F)F` (single isomer, unassigned) [Compound 1-82, 7-[4-(1-Hydroxy-1-trifluoromethyl-propyl)-[1,2,3]triazol-1-ylmethyl]-3-(6-methoxy-pyridin-3-yl)-1-(2,2,2-trifluoro-acetyl)-indolizine-2-carboxylic acid amide]: greater than 1000 nM; for `CCC(O)(c1cn(Cc2ccn3c(-c4ccc(F)cc4)c(-c4nn[nH]n4)cc3c2)nn1)C(F)(F)F` (centres unmarked) [Compound 1-23, 1,1,1-Trifluoro-2-{1-[3-(4-fluoro-phenyl)-2-(2H-tetrazol-5-yl)-indolizin-7-ylmethyl]-1H-[1,2,3]triazol-4-yl}-butan-2-ol]: greater than 1000 nM. Turning to `CCC(O)(c1cn(Cc2ccn3c(-c4ccc(F)cc4)c(C(C)=O)cc3c2)nn1)C(F)(F)F` (centres unmarked) [Compound 1-54, 1-{3-(4-Fluoro-phenyl)-7-[4-(1-hydroxy-1-trifluoromethyl-propyl)-[1,2,3]triazol-1-ylmethyl]-indolizin-2-yl}-ethanone], the half-maximal inhibitory concentration (IC50) was less than 300 nM. With `CCOc1ccc(-c2c(C(N)=O)cc3cc(Cn4cc(C(O)(CC)C(F)(F)F)nn4)ccn23)cn1` (centres unmarked) [Compound 1-58, 3-(6-Ethoxy-pyridin-3-yl)-7-[4-(1-hydroxy-1-trifluoromethyl-propyl)-[1,2,3]triazol-1-ylmethyl]-indolizine-2-carboxylic acid amide], the IC50 is greater than 1000 nM.
